Legend:
Brain CCK Receptor = target: T1, Brain CCK Receptor (Cavia porcellus, UniProt H0VZC5); test: Brain Cholecystokinin Receptor Binding Assay (cerebral cortex); conditions: guinea pig cerebral cortex, 125I-CCK-8, 25° C., 2 hours
T1 construct: The cerebral cortex was dissected and used as a receptor source; from tissue; host or cells: cerebral cortex membranes of male Hartley guinea pigs
T1 sequence (H0VZC5 1-426): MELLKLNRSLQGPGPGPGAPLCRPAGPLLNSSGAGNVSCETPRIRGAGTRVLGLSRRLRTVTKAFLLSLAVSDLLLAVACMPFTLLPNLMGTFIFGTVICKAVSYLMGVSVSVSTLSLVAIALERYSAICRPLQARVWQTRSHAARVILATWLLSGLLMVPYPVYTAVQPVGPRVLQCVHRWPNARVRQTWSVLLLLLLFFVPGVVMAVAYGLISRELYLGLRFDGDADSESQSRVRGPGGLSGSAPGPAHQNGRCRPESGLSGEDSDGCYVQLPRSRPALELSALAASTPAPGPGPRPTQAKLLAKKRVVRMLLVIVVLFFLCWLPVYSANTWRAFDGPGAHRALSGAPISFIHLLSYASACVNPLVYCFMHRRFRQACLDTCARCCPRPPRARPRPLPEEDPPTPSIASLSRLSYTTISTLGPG
Method: CCK-8 binding was performed according to the description for the pancreatic method, with modifications by Saito et al., J. Neurochem., 37, 483 (1981).
The brains from male Hartley guinea pigs (300-500 g) were removed and placed in ice-cold 50 mM Tris HCl plus 7.58 g/L Trizma-7.4 [pH 7.4 at 25° C.]. The cerebral cortex was dissected and used as a receptor source and each gram of fresh guinea pig brain tissue was homogenized in 10 ml of Tris/Trizma buffer, pH 7.4, with a Brinkmann polytron PT-10. The homogenates were centrifuged at 42,000×g for 15 minutes, then the resulting pellets were resuspended in 200 volumes of binding assay buffer (10 mM N-2-hydroxy-ethyl-piperazine-N'-2-ethane-sulfonic acid (HEPES), pH 7.7 at 25° C., MgCl2, 1 mM ethylene glycol-bis-(β-amino-ethyl-ether-N,N'-tetraacetic acid (EGTA), 0.4% BSA and 0.25 mg/ml bacitracin, pH 6.5).
The remainder of the binding assay method was as described for the pancreatic method, Example 6, except that the reaction mixtures were incubated at 25° C. for 2 hours before filtration and the filters were washed with HEPES buffer.

[1] = test system: CCK and gastrin receptors; test: Binding to both CCK and gastrin receptors (summary statement); conditions: summary in words
Method: Biological activity of virginiamycin M1 and the compounds of Formulae I, II, III and IV is determined by gastrin receptor binding, pancreas CCK receptor binding, brain CCK binding and microbial growth inhibition assays.

gram-positive bacteria = conditions: cited from earlier work
[2] = C-terminal octapeptide vs CCK-33; cited from earlier work
gastric acid secretion = conditions: cited from earlier work

Row | Compound | IC50 (Brain CCK Receptor) [nM] | binding to CCK and gastrin receptors [1] | further results
1 | CC1=C\C=C\C(=O)Cc2nc(co2)C(=O)N2CCC=C2C(=O)O[C@H](C(C)C)[C@H](C)/C=C/C(=O)NC\C=C\1 [Compound III] | 13.3 | bind to both CCK and gastrin receptors | 
2 | CC1=C\C=C\[C@H](O)Cc2nc(co2)C(=O)N2CCC=C2C(=O)O[C@H](C(C)C)[C@H](C)/C=C/C(=O)NC\C=C\1 [Compound II] | 6.1 | bind to both CCK and gastrin receptors | 
3 | CC1=C\C=C\[C@@H](O)Cc2nc(co2)C(=O)N2CCC=C2C(=O)O[C@H](C(C)C)[C@H](C)/C=C/C(=O)NC\C=C\1 [Compound I] | 7.8 | bind to both CCK and gastrin receptors | 
4 | CC1=C\CCC(=O)Cc2nc(co2)C(=O)N2CCC=C2C(=O)O[C@H](C(C)C)[C@H](C)/C=C/C(=O)NC\C=C\1 [IV] | 270 | bind to both CCK and gastrin receptors | 
5 | CC1=C\[C@@H](O)CC(=O)Cc2nc(co2)C(=O)N2CCC=C2C(=O)O[C@H](C(C)C)[C@H](C)/C=C/C(=O)NC\C=C\1 [Virginiamycin M1] | 571 | bind to both CCK and gastrin receptors | antibacterial specificity (gram-positive bacteria): generally specific for gram-positive bacteria and prevent cell multiplication
6 | C-terminal octapeptide: C-terminal octapeptide has the same efficacy as CCK-33 |  |  | efficacy relative to CCK-33 [2]: same efficacy as CCK-33; potency relative to CCK-33 [2]: approximately ten
7 | Gastrin-17: 17-amino acid form of gastrin, C-terminal fragment of the 34-amino acid form |  |  | potency relative to Gastrin-13 (gastric acid secretion; Gastrin-17 vs Gastrin-13): 2.5 times; potency relative to Gastrin-34 (gastric acid secretion; Gastrin-17 vs Gastrin-34): 5 times
